In US4728650A, “3,4-dihydrobenzopyran derivatives and medicinal uses thereof” (Kuraray Co., Ltd., priority 1985, dated 1988):
Where a name gives a salt, the structure may show the parent alone.

Assays:
[1] = Expectorant action: tracheal secretion of fluorescein sodium in rats; format: in vivo, Wistar rats (male); conditions: 50 mg/kg oral
Experimental: Male Wistar rats (body weights, 280-320 g) were used in groups of 7 animals. Each test compound was orally administered in dose of 50 mg/kg body weight to rats. Immediately after administration, 0.3 ml/100 g (body weight of rat) of a 1% aqueous solution of fluorescein sodium was injected into the caudal vein. One hour after administration of the test compound, pentobarbital sodium 100 mg/kg (body weight of rat) was injected intraperitoneally so that deep anesthesia might cause the rat to die. Then, the trachea was exposed and an incision was made in the trachea. A sonde was inserted thereinto and ligation was made. To the sonde was connected a syringe containing 10 ml of a 5% solution of sodium hydrogen carbonate kept at 37° C. and 4 ml of the solution of sodium hydrogen carbonate was injected into the lung. After 5 minutes, the fluid in the lung was removed. After this procedure of injection and removal was repeated three times, the fluid removed from the lung was filtered and the filtrate was made up with water to make 20 ml. The intensity of fluroescence was determined at the excitation wave length of 491 nm and the fluorescence wave length of 510 nm using a spectrophotometer (HITACHI model 650-10, Hitachi, Ltd.). The amount of fluorescein sodium secreted into the trachea was estimated from the intensity of fluorescence. Each test compound was administered as suspended in a gum arabic solution in concentration of 5%.

[2] = Hydrochloric acid-ethanol-induced ulcer in rats; format: in vivo, Wistar rats (male)
Experimental: Male Wistar rats (body weights, 170-210 g) were used in groups of 6 to 8 animals. Indomethacin, 20 mg/kg body weight, was injected subcutaneously to rats which had been deprived of food for 24 hours. After 7 hours, the stomach was excised under ether anesthesia. A 10% aqueous solution of formaldehyde was infused into the stomach until the stomach was inflated and, then, the stomach was immersed in a 10% aqueous solution of formaldehyde for 10 minutes for fixation of the tissue. After fixation, an incision was made along the greater curvature and the length of ulcers occurring in the glandular portion of the stomach was measured. The total length of ulcers occurring in a rat was taken as an ulcer index. Each test compound was orally administered, as suspended in a gum arabic solution in concentration of 5%, to rats 10 minutes before subcutaneous injection of indomethacin. Male Wistar rats (body weights, 160-190 g) were used in groups of 6 to 8 animals. One milliliter of a 60% aqueous solution of ethanol containing 150 mM hydrochloric acid was administered orally to rats which had been deprived of food for 24 hours. After one hour, the stomach was excised under ether anesthesia. In a manner similar to that described in study for indomethacin-induced ulcer, the ulcer index was determined. Each test compound was orally administered, as suspended in a gum arabic solution in concentration of 5%, to rats 1 hour before administration of hydrochloric acid-ethanol.

[3] = Stress ulcer (water immersion stress) in mice; format: in vivo, mice (ddK strain, male)
Experimental: Male mice of ddK strain (body weights, 18-20 g) were placed in a stress cage in groups of 6 animals and immersed down to the level of the xiphoid process in a water bath at 22±1° C. to give a stress. Five hours later the mice were raised from the water bath and the stomach was removed under ether anesthesia. Into the stomach was infused 1.2 ml of a 10% aqueous solution of formaldehyde and, then, the stomach was immersed in a 10% aqueous solution of formaldehyde for 10 minutes for fixation of the tissue. After fixation, an incision was made along the greater curvature for observing ulcers which had appeared in the glandular portion of the stomach. The degree of ulceration was classified according to the following ulcer index scale and the % inhibition of ulcer was estimated.
2: Hemorrhage and erosion
3: Severe hemorrhage and erosion
Each test compound was orally administered, as suspended in a gum arabic solution in concentration of 5%, to mice 10 minutes before stress loading.

[4] = Indomethacin-induced ulcer in rats; format: in vivo, Wistar rats (male); conditions: Table 3, 200 mg/kg p.o.
Experimental: Male Wistar rats (body weights, 170-210 g) were used in groups of 6 to 8 animals. Indomethacin, 20 mg/kg body weight, was injected subcutaneously to rats which had been deprived of food for 24 hours. After 7 hours, the stomach was excised under ether anesthesia. A 10% aqueous solution of formaldehyde was infused into the stomach until the stomach was inflated and, then, the stomach was immersed in a 10% aqueous solution of formaldehyde for 10 minutes for fixation of the tissue. After fixation, an incision was made along the greater curvature and the length of ulcers occurring in the glandular portion of the stomach was measured. The total length of ulcers occurring in a rat was taken as an ulcer index. Each test compound was orally administered, as suspended in a gum arabic solution in concentration of 5%, to rats 10 minutes before subcutaneous injection of indomethacin. The doses of test compounds and the ulcer indices for treated and untreated rats are shown in Table 3 for purposes of comparison. The % inhibition of ulcer by each test compound as estimated from the ulcer index is also presented in the same table.

[5] = Pyloric ligation-induced ulcer (Shay ulcer) in rats; format: in vivo, Wistar rats (male); conditions: Table 2, 200 mg/kg i.d.
Experimental: Male Wistar rats (body weights, 180-200 g) were used in groups of 7 animals. After 48-hour fasting, laparotomy was performed under ether anesthesia and the pylorus was ligated with a suture. After 13 hours, the stomach was isolated under ether anesthesia and gastric juice was collected. The gastric juice was centrifuged at 3,000 r.p.m. for 10 minutes and the volume and pH value of gastric juice were determined. The pH value was determined by using pH paper. After collection of gastric juice, a 10% aqueous solution of formaldehyde was infused into the stomach until the stomach was inflated. Then, the stomach was immersed in a 10% aqueous solution of formaldehyde for 10 minutes for fixation of the tissue. After fixation, an incision was made along the greater curvature for observing ulcers which had developed in the glandular portion of the stomach. The degree of ulcer was classified according to the following ulcer index scale.
2: 1-5 small ulcers (<3 mm in diameter)
3: Six or more small ulcers or one large ulcer (>3 mm in diameter)
4: Two or more large ulcers
Each test compound was administered, as suspended in a gum arabic solution in concentration of 5%, into the duodenum immediately after pyloric ligation.

COc1ccc(CN2CCN(CCC3(C)CCc4c(C)c(OC)c(C)c(C)c4O3)CC2)c(OC)c1OC (stereo not shown) [Compound (31), 1-[2-(3,4-Dihydro-6-methoxy-2,5,7,8-tetramethyl-2H-benzopyran-2-yl)ethyl]-4-(2,3,4-trimethoxybenzyl)piperazine]
Secretory amount (mean ± S.E.) ([1]; Table 16, control 6.455 ± 0.766): 7.529 ± 0.751 μg/100 g (body weight of rat)/ | inhibition in vivo at 50 mg/kg ([2]; Rattus norvegicus, po, 1 h, Table 11, 50 mg/kg p.o.): 100% | Ulcer index (mean ± S.E.) ([2]; Table 11, 50 mg/kg p.o., control 6.12 ± 1.76): 0.00 ± 0.00 mm

CN1[C@@H]2CC[C@H]1C[C@@H](OC(=O)C(CO)c1ccccc1)C2 (stereo partly shown) [Atropine sulfate]
% Inhibition of ulcer ([3]; Table 1, 30 mg/kg p.o.): 80.99% | Ulcer index (mean ± S.E.) ([3]; Table 1, 30 mg/kg p.o., control 2.63 ± 0.18): 0.50 ± 0.29 mm

COc1ccc(CN2CCN(C(=O)CC3(C)CCc4cc(Cl)ccc4O3)CC2)c(OC)c1OC (stereo not shown) [Compound (29), 1-[(6-Chloro-3,4-dihydro-2-methyl-2H-benzopyran-2-yl)acetyl]-4-(2,3,4-trimethoxybenzyl)piperazine]
Secretory amount (mean ± S.E.) ([1]; Table 13, control 5.30 ± 0.40): 5.57 ± 0.36 μg/100 g (body weight of rat)/

COc1c(C)c(C)c2c(c1C)CCC(C)(CCN1CCN(C(=O)CCC=C(C)CCC=C(C)CCC=C(C)C)CC1)O2 (stereo not shown) [Compound (24), 1-[2-(3,4-Dihydro-6-methoxy-2,5,7,8-tetramethyl-2H-benzopyran-2-yl)ethyl]-4-(5,9,13-trimethyl-4,8,12-tetradecatrienoyl)piperazine]
Secretory amount (mean ± S.E.) ([1]; Table 14, control 1.60 ± 0.18): 2.74 ± 0.22 μg/100 g (body weight of rat)/

CNC(=NC#N)NCCSCc1nc[nH]c1C [Cimetidine, N"-cyano-N-methyl-N'-[2-[(5-methyl-1H-imidazol-4-yl)methylthio]ethyl]guanidine, reference compound]
% Inhibition of ulcer [4]: 86.97% | Ulcer index (mean ± S.E.) ([4]; control 10.36 ± 2.07): 1.35 ± 0.48 mm | inhibition in vivo at 200 mg/kg ([2]; Rattus norvegicus, po, 1 h, Table 7, 200 mg/kg p.o.): 77.9% | inhibition in vivo at 200 mg/kg ([2]; Rattus norvegicus, po, 1 h, Table 12, 200 mg/kg p.o.): 78% | Ulcer index (mean ± S.E.) ([2]; Table 4, 200 mg/kg p.o., control 7.36 ± 1.23): 1.63 ± 0.49 mm | Ulcer index (mean ± S.E.) ([2]; Table 12, 200 mg/kg p.o., control 9.93 ± 0.91): 2.18 ± 1.04 mm | pH value of gastric juice ([5]; control 1.77 ± 0.54): 2.29 ± 0.88 | Volume of gastric juice ([5]; control 5.09 ± 0.40): 5.13 ± 0.99 ml/100 g body weight | Ulcer index (mean ± S.E.) ([5]; scale 0-5, control 3.86 ± 0.40): 1.71 ± 0.18 | % Inhibition of ulcer ([3]; mouse, in vivo, po, 200 mg/kg): 49.43% | Ulcer index (mean ± S.E.) ([3]; mouse, in vivo, po, 200 mg/kg): 1.33 ± 0.21 mm

COc1ccc(CN2CCN(C(=O)CC3(C)CCc4c(C)c(OC)c(C)c(C)c4O3)CC2)c(OC)c1OC (stereo not shown) [Compound (28), 1-[(3,4-Dihydro-6-methoxy-2,5,7,8-tetramethyl-2H-benzopyran-2-yl)acetyl]-4-(2,3,4-trimethoxybenzyl)piperazine]
Secretory amount (mean ± S.E.) ([1]; Table 14, control 1.60 ± 0.18): 3.28 ± 0.31 μg/100 g (body weight of rat)/

COc1c(C)c(C)c2c(c1C)CCC(C)(CCN1CCN(C(=O)c3ccc(N(C)C)cc3)CC1)O2 (stereo not shown) [Compound (20), 1-[2-(3,4-Dihydro-6-methoxy-2,5,7,8-tetramethyl-2H-benzopyran-2-yl)ethyl]-4-(4-dimethylaminobenzoyl)piperazine]
Secretory amount (mean ± S.E.) ([1]; Table 15, control 5.20 ± 0.78): 8.72 ± 1.45 μg/100 g (body weight of rat)/

COc1c(C)c(C)c2c(c1C)CCC(C)(CCN1CCN(C(=O)c3ccccc3)CC1)O2 (stereo not shown) [Compound (32), 1-Benzoyl-4-[2-(3,4-dihydro-6-methoxy-2,5,7,8-tetramethyl-2H-benzopyran-2-yl)ethyl]piperazine]
Secretory amount (mean ± S.E.) ([1]; Table 13, control 5.30 ± 0.40): 5.43 ± 0.72 μg/100 g (body weight of rat)/

COc1c(C)c(C)c2c(c1C)CCC(C)(CCN1CCN(C(=O)c3ccc([N+](=O)[O-])cc3)CC1)O2 (stereo not shown) [Compound (21), 1-[2-(3,4-Dihydro-6-methoxy-2,5,7,8-tetramethyl-2H-benzopyran-2-yl)ethyl]-4-(4-nitrobenzoyl)piperazine]
Secretory amount (mean ± S.E.) ([1]; Table 15, control 5.20 ± 0.78): 5.89 ± 0.40 μg/100 g (body weight of rat)/

COc1c(C)c(C)c2c(c1C)CCC(C)(CCN1CCN(C(=O)c3ccncc3)CC1)O2 (stereo not shown) [Compound (23), 1-[2-(3,4-Dihydro-6-methoxy-2,5,7,8-tetramethyl-2H-benzopyran-2-yl)ethyl]-4-(4-pyridylcarbonyl)piperazine]
Secretory amount (mean ± S.E.) ([1]; Table 15, control 5.20 ± 0.78): 8.16 ± 1.03 μg/100 g (body weight of rat)/

COc1ccc(C(=O)N2CCN(CCC3(C)CCc4cc(Cl)ccc4O3)CC2)cc1 (stereo not shown) [Compound (26), 1-[2-(6-Chloro-3,4-dihydro-2-methyl-2H-benzopyran-2-yl)ethyl]-4-(4-methoxybenzoyl)piperazine]
Secretory amount (mean ± S.E.) ([1]; Table 15, control 5.20 ± 0.78): 9.61 ± 0.83 μg/100 g (body weight of rat)/

COc1ccc(CN2CCN(C(=O)C3(C)CCc4c(C)c(OC)c(C)c(C)c4O3)CC2)c(OC)c1OC (stereo not shown) [Compound (30), 1-[(3,4-Dihydro-6-methoxy-2,5,7,8-tetramethyl-2H-benzopyran-2-yl)carbonyl]-4-(2,3,4-trimethoxybenzyl)piperazine]
Secretory amount (mean ± S.E.) ([1]; Table 13, control 5.30 ± 0.40): 5.45 ± 0.54 μg/100 g (body weight of rat)/
